Experimental data as given in patent US20240261294A1, “METHOD FOR TREATING IDH INHIBITOR-RESISTANT SUBJECTS” (Eli Lilly and Company, priority 2021, published 2024).
Where a chain is given by its changes, count along the chain named. Read-outs that look alike come from different tables or passages of the source.

Assays:
IDH2 R140L_Q316E cis = target: T1, IDH2 R140L_Q316E cis (Homo sapiens, UniProt P48735, Q316E/R140L); assay: Inhibition of 2-HG production in IDH2 mutant U-87 MG cells; type: cell-based; details: 16 hours incubation, 50K cells/well, 100 μl media/well, read-out: Relative IC50 (nM) Mean, inhibition of 2-HG production
T1 construct: expressed in transfected cells; host or cells: U-87 MG
T1 sequence (P48735 40-452 R140L/Q316E): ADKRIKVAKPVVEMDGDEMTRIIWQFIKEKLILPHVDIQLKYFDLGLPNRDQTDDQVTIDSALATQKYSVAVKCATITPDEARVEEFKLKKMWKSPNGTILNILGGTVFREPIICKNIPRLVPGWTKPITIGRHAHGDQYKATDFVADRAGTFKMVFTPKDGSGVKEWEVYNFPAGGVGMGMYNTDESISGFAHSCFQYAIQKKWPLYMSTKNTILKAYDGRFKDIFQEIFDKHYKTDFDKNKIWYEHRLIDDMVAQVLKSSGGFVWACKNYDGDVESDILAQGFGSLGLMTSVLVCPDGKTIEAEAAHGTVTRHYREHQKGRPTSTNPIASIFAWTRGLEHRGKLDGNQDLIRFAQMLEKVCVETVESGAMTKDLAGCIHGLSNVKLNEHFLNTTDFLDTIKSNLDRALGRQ

IDH2 R140Q_I319M cis = target: T2, IDH2 R140Q_I319M cis (Homo sapiens, UniProt P48735, I319M/R140Q); assay: as above; type: cell-based
T2 construct: expressed in transfected cells; host or cells: U-87 MG
T2 sequence (P48735 40-452 R140Q/I319M): T1 sequence (P48735 40-452 R140L/Q316E) with L101Q, E277Q, I280M

IC50 (IDH2 R140L_Q316E cis): 145 nM
IC50 (IDH2 R140Q_I319M cis; 16 hours incubation, 50K cells/well, 100 μl media/well, read-out: Relative IC50 (nM) Mean, inhibition of 2-HG production): 29 nM
IC50 (IDH2 R140Q_I319M cis; 72 hours incubation, 12.5K cells/well, 150 μl media/well, read-out: IC50, inhibition of 2-HG production): 30.4 nM
Compound: C=CC(=O)N1CCN([C@@H](CC2CC2)c2ccc([C@H](C)Nc3ncc4c(n3)N(CC)C(=O)OC4)cc2)CC1 [Compound A, 7-[[(1S)-1-[4-[(1S)-2-cyclopropyl-1-(4-prop-2-enoylpiperazin-1-yl)ethyl]phenyl]ethyl]amino]-1-ethyl-4H-pyrimido[4,5-d][1,3]oxazin-2-one]
